Reference: PubChem BioAssay AID504539 (Broad Institute, 2011)
Activity calls are given as the source filed them. No rule for the calls is given here.

Key:
[1] = prion protein 5' UTR mRNA inhibitors – cell-based, plate reader, cherry-picked samples, dose response (AID 504539); conditions: Cell-based prion protein 5' UTR reporter, plate reader; at 5 µM (top of the series)
[2] = test system: Cell-based prion protein 5' UTR reporter, plate reader; assay: as above

Compound: CCc1ccc(/C=C2\SC(=S)N(CCCC(=O)Nc3ccccn3)C2=O)cc1
- activity change, negative = inhibition [1]: -23.5% (inactive)

Compound: Cn1nnc2cc(C(=O)NC3CCCCC3)ccc21
- activity change, negative = inhibition [1]: 46.3% (inactive)

Compound: CCOc1ccc(C2=Nn3c(nnc3-c3ccccc3OC)SC2)cc1
- activity change, negative = inhibition [1]: -38.1% (inactive)

Compound: COc1ccc(Nc2nc(-c3c(C)nc4ncccn34)cs2)cc1
- activity change, negative = inhibition [1]: -31.6% (inactive)

Compound: Cc1ccc(S(=O)(=O)Nc2nc3ccccc3s2)cc1[N+](=O)[O-]
- activity change, negative = inhibition [1]: 25.2% (inactive)

Compound: O=C(NNC(=O)c1cccs1)c1ccco1
- activity change, negative = inhibition [1]: 6.33% (inactive)

Compound: O=C(NN1C(=O)C2C3C=CC(C4CC34)C2C1=O)c1ccc(Br)cc1 (configuration not stated)
- activity change, negative = inhibition [1]: 108% (inactive)

Compound: N#Cc1cn(C2OC(CO)C(O)C2O)c2ncnc(N)c12 (configuration not stated)
- activity change, negative = inhibition [1]: -30.1% (inactive)

Compound: CC(=O)OC(C)(C)/C=C/C(=O)[C@](C)(O)[C@H]1[C@H](O)C[C@@]2(C)[C@@H]3CC=C4[C@H](C[C@H](O)C(=O)C4(C)C)[C@]3(C)C(=O)C[C@]12C
- AC50 [2]: < 38 nM

Compound: C=C1CC(Cn2cc(Br)c(=O)[nH]c2=O)(c2ccc(-c3ccccc3)cc2)OC1=O (configuration not stated)
- AC50 [2]: 1160 nM

Compound: O=C(CN1C(=O)c2ccccc2S1(=O)=O)c1ccc(Cl)cc1Cl
- AC50 [2]: 181 nM

Compound: CCOC(=O)c1ccc(NC(=O)Nc2ccon2)cc1
- AC50 [2]: 596 nM

Compound: CCCCN1C=CC(=C2C(=O)c3ccccc3C2=O)C=C1
- AC50 [2]: 248 nM

Compound: CN(C)c1ccc(/C=C2\SC(=O)N(CCc3nnc(N)s3)C2=O)cc1
- AC50 [2]: 481 nM

Compound: O=C1NC2C(O)C(O)C(O)C(O)C2c2cc3c(c(O)c21)OCO3 (configuration not stated)
- AC50 [2]: 1480 nM

Compound: Cc1[nH]nc2ccc(-c3cncc(OC[C@@H](N)Cc4c[nH]c5ccccc45)c3)cc12
- AC50 [2]: 335 nM

Compound: O=c1c2ccccc2sc2ccc(C#CC3(O)CCCCC3)cc12
- AC50 [2]: < 38 nM

Compound: O=C(CN1C(=O)c2ccccc2S1(=O)=O)N1CCc2ccccc21
- AC50 [2]: 582 nM

Compound: Cc1ccc(OCC(=O)c2cc(C)n(-c3ccccc3)c2C)c([N+](=O)[O-])n1
- AC50 [2]: 3270 nM

Compound: O=c1cc(-c2ccc(O)cc2)oc2ccc3ccccc3c12
- AC50 [2]: 629 nM

Compound: CC(C)CCCCCCCCCCCCC(=O)NCC(=O)NC1C(C)OC(Nc2ncnc3nc[nH]c23)C(O)C1O (configuration not stated)
- AC50 [2]: 73 nM

Compound: CCOCCOC(=O)c1[nH]c2c(c1C)C(=O)CC(c1cccs1)C2 (configuration not stated)
- AC50 [2]: 1700 nM

Compound: O=C(O)c1ccc(N/N=C/c2ccc3c(c2)OCO3)cc1
- AC50 [2]: 419 nM

Compound: C[C@H]1CCC/C=C/[C@@H]2C[C@H](O)C[C@H]2[C@H](O)[C@H](S(=O)c2ccc(O)cc2)CC(=O)O1 (some centres not stated)
- AC50 [2]: 182 nM

Compound: Fc1ccc(-n2nnc(-c3cnc4ccccc4c3)n2)cc1
- AC50 [2]: 1040 nM

Compound: Clc1ccc(-n2ncc3c(N4CCCCCC4)ncnc32)cc1
- AC50 [2]: 795 nM

Compound: CCN1C/C(=C\c2cccc([N+](=O)[O-])c2)C(=O)/C(=C/c2cccc([N+](=O)[O-])c2)C1
- AC50 [2]: 2350 nM
